Assay results: patent publication US8378104B2 (OSI Pharmaceuticals, LLC, priority 2010, dated 2013)
Where a name gives a salt, the structure may show the parent alone.

Biological target: T1, TAK1-TAB1 fusion protein (Homo sapiens, UniProt O43318)
T1 construct: purchased Carna
T1 sequence (O43318 with tags, fused parts or gaps limits assumed): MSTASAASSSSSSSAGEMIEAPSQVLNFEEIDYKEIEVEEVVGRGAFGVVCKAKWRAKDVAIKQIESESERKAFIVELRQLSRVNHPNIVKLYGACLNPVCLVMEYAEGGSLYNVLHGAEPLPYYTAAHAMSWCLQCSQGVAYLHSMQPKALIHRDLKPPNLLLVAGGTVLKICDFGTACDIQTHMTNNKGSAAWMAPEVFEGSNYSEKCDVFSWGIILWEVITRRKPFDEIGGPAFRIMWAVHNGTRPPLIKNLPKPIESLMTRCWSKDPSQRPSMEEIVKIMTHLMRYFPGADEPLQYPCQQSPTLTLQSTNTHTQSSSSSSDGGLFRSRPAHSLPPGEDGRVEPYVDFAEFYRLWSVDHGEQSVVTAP
Test: TAK1 biochemical assay (AlphaScreen, GST-MAP2K7 substrate)
Settings: TAK1-TAB1 fusion protein, GST-MAP2K7 substrate; read-out: mean TAK1 IC50 (Col. A)

Row | SMILES | IC50 [nM]
1 | CC(=O)Nc1ccccc1-c1cc2c(-c3cnn(C4CCN(C(C)=O)CC4)c3)cnc(N)c2o1 [Example 141, N-(2-{4-[1-(1-acetylpiperidin-4-yl)-1H-pyrazol-4-yl]-7-aminofuro[2,3-c]pyridin-2-yl}phenyl)acetamide] | > 10000
2 | CC(=O)N1CCC(n2cc(-c3cnc(N)c4oc(-c5ccc6cc[nH]c6c5)cc34)cn2)CC1 [Example 167, 1-(4-{4-[7-amino-2-(1H-indol-6-yl)furo[2,3-c]pyridin-4-yl}-1H-pyrazol-1-yl}piperidin-1-yl)ethanone] | 1000 to 10000
3 | CC(=O)N1CCC(n2cc(-c3cnc(N)c4oc(-c5ccc(Oc6ccccc6)cc5)cc34)cn2)CC1 [Example 159, 1-(4-{4-[7-amino-2-(4-phenoxyphenyl)furo[2,3-c]pyridin-4-yl]-1H-pyrazol-1-yl}piperidin-1-yl)ethanone] | > 10000
4 | COC(=O)c1csc(-c2cnc(N)c3oc(-c4csc5cnccc45)cc23)c1 [Example 380, 5-(7-amino-2-thieno[2,3-c]pyridin-3-yl-furo[2,3-c]pyridin-4-yl)-thiophene-3-carboxylic acid methyl ester] | 1000 to 10000
5 | CC(=O)N1CCC(n2cc(-c3cnc(N)c4oc(-c5ccccc5C(N)=O)cc34)cn2)CC1 [Example 172, 2-{4-[1-(1-acetylpiperidin-4-yl)-1H-pyrazol-4-yl]-7-aminofuro[2,3-c]pyridin-2-yl}benzamide] | 1000 to 10000
6 | Nc1ncc(-c2cnn(C3CCNCC3)c2)c2cc(C3=CCNCC3)oc12 [Example 49, 4-[1-(piperidin-4-yl)-1H-pyrazol-4-yl]-2-(1,2,3,6-tetrahydropyridin-4-yl)furo[2,3-c]pyridin-7-amine dihydrochloride] | 1000 to 10000
7 | Nc1ncc(-c2cc(C(=O)O)cs2)c2cc(-c3csc4cnccc34)oc12 [Example 379, 5-(7-amino-2-thieno[2,3-c]pyridin-3-yl-furo[2,3-c]pyridin-4-yl)-thiophene-3-carboxylic acid] | 1000 to 10000
8 | CC1(C)OCC(Cn2cc(-c3cnc(N)c4oc(-c5cccc6cnccc56)cc34)cn2)O1 (centres unmarked) [Example 61, 4-{1-[(2,2-dimethyl-1,3-dioxolan-4-yl)methyl]-1H-pyrazol-4-yl}-2-(isoquinolin-5-yl)furo[2,3-c]pyridin-7-amine] | 1000 to 10000
9 | CC(=O)N1CCC(n2cc(-c3cnc(N)c4oc(-c5cnc6ccccc6c5)cc34)cn2)CC1 [Example 168, 1-(4-{4-[7-amino-2-(quinolin-3-yl)furo[2,3-c]pyridin-4-yl]-1H-pyrazol-1-yl}piperidin-1-yl)ethanone] | 1000 to 10000
10 | CC(=O)N1CCC(n2cc(-c3cnc(N)c4oc(-c5cccc(OCC6CCCCC6)c5)cc34)cn2)CC1 [Example 209, 1-[4-(4-{7-amino-2-[3-(cyclohexylmethoxy)phenyl]furo[2,3-c]pyridin-4-yl}-1H-pyrazol-1-yl)piperidin-1-yl]ethanone] | > 10000
11 | COC(=O)c1cc2cc(-c3cc4c(-c5cnn(C6CCNCC6)c5)cnc(N)c4o3)ccc2s1 [Example 47, methyl 5-{7-amino-4-[1-(piperidin-4-yl)-1H-pyrazol-4-yl]furo[2,3-c]pyridine-2-yl}-1-benzothiophene-2-carboxylate] | 1000 to 10000
12 | Nc1ncc(-c2cnn(C3CCNCC3)c2)c2cc(-c3cc(F)cc(F)c3)oc12 [Example 8, 2-(3,5-difluorophenyl)-4-[1-(piperidin-4-yl)-1H-pyrazol-4-yl]furo[2,3-c]pyridin-7-amine] | 1000 to 10000
13 | Nc1ncc(-c2cnn([C@H]3CC[C@H](O)CC3)c2)c2cc(-c3ccc4c(c3)CC(=O)N4)oc12 [Example 405, 5-{7-amino-4-[1-(trans-4-hydroxycyclohexyl)-1H-pyrazol-4-yl]furo[2,3-c]pyridin-2-yl}-1,3-dihydro-2H-indol-2-one] | 1000 to 10000
14 | COc1cc2c(-c3cc4c(-c5cnn([C@H]6CC[C@H](O)CC6)c5)cnc(N)c4o3)csc2cn1 [Example 250, trans-4-{4-[7-amino-2-(5-methoxythieno[2,3-c]pyridin-3-yl)furo[2,3-c]pyridin-4-yl]-1H-pyrazol-1-yl}cyclohexanol bis(trifluoroacetate)] | 1000 to 10000
15 | Nc1ncc(-c2cnn(C3CCNCC3)c2)c2cc(-c3cccc4ccccc34)oc12 [Example 3, 2-(naphthalen-1-yl)-4-[1-(piperidin-4-yl)-1H-pyrazol-4-yl]furo[2,3-c]pyridin-7-amine] | 1000 to 10000

Other lines, results leading:

Row | IC50 [nM] | SMILES
16 | 1000 to 10000 | CC(=O)N1CCC(n2cc(-c3cnc(N)c4oc(-c5coc6ccccc56)cc34)cn2)CC1 [Example 220, 1-(4-{4-[7-amino-2-(1-benzofuran-3-yl)furo[2,3-c]pyridin-4-yl]-1H-pyrazol-1-yl}piperidin-1-yl)ethanone bis(trifluoroacetate)]
17 | 1000 to 10000 | CC(=O)N1CCC(n2cc(-c3cnc(N)c4oc(-c5cccc(OC(C)C)c5)cc34)cn2)CC1 [Example 165, 1-[4-(4-{7-amino-2-[3-(propan-2-yloxy)phenyl]furo[2,3-c}pyridin-4-yl}-1H-pyrazol-1-yl)piperidin-1-yl}ethanone]
18 | 1000 to 10000 | CC(=O)N1CCC(n2cc(-c3cnc(N)c4oc(-c5cccc(N(C)C)c5)cc34)cn2)CC1 [Example 116]
19 | 1000 to 10000 | CS(=O)(=O)Nc1cccc(-c2cc3c(-c4cnn(C5CCNCC5)c4)cnc(N)c3o2)c1 [Example 23, N-(3-{7-amino-4-[1-(piperidin-4-yl)-1H-pyrazol-4-yl]furo[2,3-c]pyridine-2-yl}phenyl)methanesulfonamide]
20 | 100 to 1000 | CC(=O)N1CCC(n2cc(-c3cnc(N)c4oc(-c5c(-c6ccccc6)sc6cnccc56)cc34)cn2)CC1 [Example 263, 1-(4-{4-[7-amino-2-(2-phenylthieno[2,3-c]pyridin-3-yl)furo[2,3-c]pyridin-4-yl]-1H-pyrazol-1-yl}piperidin-1-yl)ethanone trifluoroacetate]
21 | 1000 to 10000 | CC(=O)N1CCC(n2cc(-c3cnc(N)c4oc(-c5cccc(OC(F)(F)F)c5)cc34)cn2)CC1 [Example 163, 1-[4-(4-{7-amino-2-[3-(trifluoromethoxy)phenyl]furo[2,3-c]pyridin-4-yl}-1H-pyrazol-1-yl)piperidin-1-yl]ethanone]
22 | 1000 to 10000 | CC(=O)N1CCC(n2cc(-c3cnc(N)c4oc(-c5ccc(CC#N)cc5)cc34)cn2)CC1 [Example 179, (4-{4-[1-(1-acetylpiperidin-4-yl)-1H-pyrazol-4-yl]-7-aminofuro[2,3-c]pyridin-2-yl}phenyl)acetonitrile]
23 | 1000 to 10000 | CC(=O)N1CCC(n2cc(-c3cnc(N)c4oc(-c5ccc(N)c(C)c5)cc34)cn2)CC1 [Example 140, 1-(4-{4-[7-amino-2-(4-amino-3-methylphenyl)furo[2,3-c]pyridin-4-yl]-1H-pyrazol-1-yl}piperidin-1-yl)ethanone]
24 | 100 to 1000 | Nc1ncc(-c2cnn([C@H]3CC[C@H](O)CC3)c2)c2cc(-c3ccc4c(c3)C(=O)NC4)oc12 [Example 403, 6-{7-amino-4-[1-(trans-4-hydroxycyclohexyl)-1H-pyrazol-4-yl]furo[2,3-c]pyridin-2-yl}-2,3-dihydro-1H-isoindol-1-one]
25 | 1000 to 10000 | CC(=O)N1CCC(n2cc(-c3cnc(N)c4oc(-c5cccc6ccncc56)cc34)cn2)CC1 [Example 190, 1-(4-{4-[7-amino-2-(isoquinolin-8-yl)furo[2,3-c]pyridin-4-yl]-1H-pyrazol-1-yl}piperidin-1-yl)ethanone]
26 | 1000 to 10000 | Nc1ncc(-c2cnn(C3CCNCC3)c2)c2cc(-c3cc(F)cc(C(F)(F)F)c3)oc12 [Example 7, 2-[3-fluoro-5-(trifluoromethyl)phenyl]-4-[1-(piperidin-4-yl)-1H-pyrazol-4-yl]furo[2,3-c]pyridin-7-amine]
27 | 1000 to 10000 | CCNc1ncc(-c2cnn(C3CCN(C(C)=O)CC3)c2)c2cc(-c3csc4cnccc34)oc12 [Example 277, 1-(4-{4-[7-(ethylamino)-2-(thieno[2,3-c]pyridin-3-yl)furo[2,3-c]pyridin-4-yl]-1H-pyrazol-1-yl}piperidin-1-yl)ethanone trifluoroacetic acid salt]
28 | 1000 to 10000 | CC(=O)N1CCC(n2cc(-c3cnc(N)c4oc(-c5ccc6c(c5)CC(=O)N6)cc34)cn2)CC1 [Example 103, 5-{4-[1-(1-acetylpiperidin-4-yl)-1H-pyrazol-4-yl]-7-aminofuro[2,3-c]pyridin-2-yl}-1,3-dihydro-2H-indol-2-one]
29 | 100 to 1000 | Nc1cc(-c2cc3c(-c4cnn(C5CCNCC5)c4)cnc(N)c3o2)cnc1Cl [Example 43, 2-(5-amino-6-chloropyridin-3-yl)-4-[1-(piperidin-4-yl)-1H-pyrazol-4-yl]furo[2,3-c]pyridine-7-amine]
30 | 100 to 1000 | CC(=O)N1CCC(n2cc(-c3cnc(N)c4oc(-c5cccc(CN)c5)cc34)cn2)CC1 [Example 178, 1-[4-(4-{7-amino-2-[3-(aminomethyl)phenyl]furo[2,3-c]pyridin-4-yl}-1H-pyrazol-1-yl)piperidin-1-yl]ethanone]
31 | 100 to 1000 | Nc1ncc(-c2cnn(C3CCNCC3)c2)c2cc(-c3cccc4c3oc3ccccc34)oc12 [Example 36, 2-(dibenzo[b,d]furan-4-yl)-4-[1-(piperidin-4-yl)-1H-pyrazol-4-yl]furo[2,3-c]pyridine-7-amine]
32 | 100 to 1000 | COc1cccc2cc(C=CC(=O)N3CCC(n4cc(-c5cnc(N)c6oc(-c7csc8cnccc78)cc56)cn4)CC3)oc12 [Example 333, 1-{4-[4-(7-amino-2-thieno[2,3-c]pyridin-3-yl-furo[2,3-c]pyridin-4-yl)-pyrazol-1-yl]-piperidin-1-yl}-3-(7-methoxy-benzo-furan-2-yl)-propenone]
